{
  "source": "patent US10662214B2",
  "about": "“Compound of 4′-thionucleoside, as well as preparation method therefor, pharmaceutical composition thereof and application thereof” (Sichuan Kelun-Biotech Biopharmaceutical Co., Ltd., priority 2015, dated 2020)",
  "key": {"[1]": {"test_system": "gastric cancer cell NCI-N87", "test": "CCK-8 inhibition of proliferation, NCI-N87", "assay_type": "cell-based, human", "procedure": "(§1) The tumor cell lines employed in the present experiment were gastric cancer cell NCI-N87 (obtained from Guangzhou Jennio Biological Technology Co., Ltd.), colorectal cancer cell HCT-116 (obtained from Chengdu Center for Safety Evaluation of Drugs), colorectal cancer cell HCT-15 and pancreatic cancer cell BxPC-3 (both obtained from ATCC, US).\n(§2) Each of the cell lines is cultured in a corresponding culture medium (RPMI-1640, IMDM and L-15 culture medium (manufacturer: Gibco)) supplemented with 10% heat inactivated Fetal Bovine Serum (manufacturer: Sigma), in an incubator at 37° C. and 5% CO2.\n(§3) For each type of tumor cells, a blank group, a vehicle group (containing 1‰ DMSO) and 8 groups with a test compound at concentrations of 5 nM, 10 nM, 50 nM, 100 nM, 500 nM, 1000 nM, 5000 nM, and 10000 nM (with each concentration in triplicate) were set.\n(§4) Appropriate amounts of test compounds were weighted, and dissolved in DMSO (cell culture grade, Sigma) to prepare stock solutions of various concentration gradients according to desired concentrations. During incubation, they were diluted by 1000 times as necessary, and incubation solutions with various drug concentrations were prepared (compound stock solution:medium containing 2% FBS=1:1000).\n(§5) The experiment was performed according to a CCK-8 method as described below. Cancer cells to be tested were seeded in a 96-well culture plate at a concentration of 5˜10×10^4/mL (100 μL/well), followed by incubation at 37° C. and 5% CO2 for 24 h. The medium was discarded, and incubation solutions with different drug concentrations (200 μL) were respectively added to each well, and the cells were further incubated for 72 h. After the incubation, a CCK-8 solution (20 μL/well) was added to each well to be tested, and the incubation was continued for 4 h in the incubator. OD values at two wavelengths (Detection wavelength: 450 nm, and reference wavelength: 650 nm) were determined on a multifunctional fully-automatic microplate reader.\n(§6) The inhibitory rate of tumor cell growth was calculated according to the following formula: Inhibitory rate=[(ODvehicle−ODblank)−(ODdrug−ODblank)]/(ODvehicle−ODblank)*100%\n(§7) Based on the inhibitory rate, a concentration-inhibitory rate curve was fit using GraphPad prism 5.0 software, and IC50 was calculated."}, "[2]": {"test_system": "colorectal cancer cell HCT-15", "test": "CCK-8 inhibition of proliferation, HCT-15", "assay_type": "cell-based, human", "procedure": "as §1, §2, §3, §4, §5, §6, §7"}, "[3]": {"test_system": "pancreatic cancer cell BxPC-3", "test": "CCK-8 inhibition of proliferation, BxPC-3", "assay_type": "cell-based, human", "procedure": "as §1, §2, §3, §4, §5, §6, §7"}, "[4]": {"test_system": "gastric cancer cell NCI-N87", "test": "Subcutaneous xenograft of gastric cancer cell NCI-N87 in nude mice (Experimental example 2)", "assay_type": "in vivo", "settings": "for TGI (%): twice a week for 3 weeks; for Body weight change: 14 days after last administration vs beginning; for Tumor regression, CR (complete tumor regression): animals out of 8", "description": "(§9) This experimental example was used for the evaluation of the effectiveness of the compounds of the present invention in inhibiting the proliferation of a subcutaneous xenograft of human tumor cells via various routes of administration.\n(§10) Gastric cancer cell NCI-N87 and colorectal cancer cell HCT-116 were cultured as a monolayer in vitro, and the culture conditions were RPMI-1640 culture medium supplemented with 10% heat inactivated Fetal Bovine Serum, and incubation in an incubator at 37° C. and 5% CO2. The cells were subcultured by treatment with trypsin-EDTA digestion.\n(§11) The tumor cells were respectively inoculated into BALB/c nude mice (SPF grade, female, 16-18 g per mouse, about 6 to 8 weeks old, Beijing Vital River Laboratory Animal Technology Co., Ltd.).\n(§12) Each nude mouse was inoculated with about 2.5×10^6 HCT-116 tumor cells or about 3×10^6 NCI-N87 tumor cells (suspended in 0.1 ml PBS) subcutaneously into the underarm of the right flank. After the inoculated tumor reached a size in the range of about 100-200 mm^3, nude mice bearing a tumor that is too small (smaller than 100 mm^3) or too big (bigger than 200 mm^3) were removed from the study, and the remaining ones were randomized into groups.\n(§13) Sulfobutyl ether-β-cyclodextrin (SE-β-CD) was formulated with physiological saline to form a 10% solution, which was then filtered through a 0.22 μm sterile filter for later use.\n(§14) An appropriate amount of the test compound was weighted, and added in DMSO. The resultant solution was vortexed to uniformity, and the 10% solution of SE-β-CD was added according to the desired concentration. The solution was vortexed to uniformity, and the final concentration of DMSO was adjusted to 5%. A gemcitabine injection (a positive control) was directly diluted to the desired concentration with physiological saline. A 10% solution of SE-β-CD containing 5% DMSO was prepared as a vehicle control.\n(§15) Mice bearing a tumor having a volume of about 100-200 mm^3 were selected, and randomized into 5 groups (8 mice per group). The dosing volume was 10 mL/kg, and the administration (intravenous administration (i.v.) or oral administration (p.o.)) was performed twice a week for 3 weeks. The tumor volume and body weight were measured twice a week after the administration, and the mortality of animals was observed every day.\n(§16) The diameter of a tumor was measured, and the tumor volume was calculated according to the following formula: V=0.5a×b^2, wherein a and b respectively represent the major and minor diameters of a tumor. The anti-tumor effect was evaluated by the tumor growth inhibition (TGI) (%). TGI (%)=[1−(VT-end−VT-start)/(VC-end−VC-start)]*100%\n(§17) The body weight of an animal was measured twice a week."}, "[5]": {"test_system": "human pancreatic cancer cell BxPC-3", "test": "Subcutaneous xenograft of human pancreatic cancer cell BxPC-3 in a nude mouse (Experimental example 3)", "assay_type": "in vivo", "settings": "once every 3 days, 4 times", "procedure": "According to methods similar to those in sections 1 to 2 in Experimental example 2, pancreatic cancer cell BxPC-3 was cultured as a monolayer in vitro, and inoculated, and the animals were randomized into groups.\nAn appropriate amount of the test compound was weighted out, and added in DMSO. The 10% solution of SE-β-CD was then added according to the desired concentration, and the final concentration of DMSO was adjusted to 2.5%. A gemcitabine injection (a positive control) was diluted to the desired concentration with physiological saline. A 10% solution of SE-β-CD containing 2.5% DMSO was prepared as a vehicle control.\nMice bearing a tumor having a volume of 100-200 mm^3 were selected, and randomized into 14 groups (7 mice per group). The dosing volume was 20 mL/kg, and the administration (intravenous administration (i.v.)) was performed once every 3 days, for 4 times in total.\n(§8) For statistical calculations of the test indexes, please refer to Experimental example 2."}, "[6]": {"test_system": "human pancreatic cancer cell Capan-1", "test": "Subcutaneous xenograft of human pancreatic cancer cell Capan-1 in a nude mouse (Experimental example 5)", "assay_type": "in vivo", "settings": "once every 3 days, 6 times", "procedure": "According to methods similar to those in sections 1 to 2 in Experimental example 2, pancreatic cancer cell Capan-1 was cultured as a monolayer in vitro, and inoculated, and the animals were randomized into groups.\nSamples were prepared as described in Experimental example 2.\nMice bearing a tumor having a volume of 100-200 mm^3 were selected, and randomized into 7 groups (7 mice per group).\nas §8"}, "[7]": {"test_system": "human pancreatic cancer cell PANC-1", "test": "Subcutaneous xenograft of human pancreatic cancer cell PANC-1 in a nude mouse (Experimental example 6)", "assay_type": "in vivo", "settings": "once every 3 days, 6 times", "procedure": "This test was performed according to experimental example 5.\nMice bearing a tumor having a volume of 100-200 mm^3 were selected, and randomized into 4 groups (6 mice per group)."}, "[8]": {"test": "Oral toxicity test in mice (administration for 7 days)", "assay_type": "in vivo", "settings": "once per day for 7 days", "procedure": "Normal Male and female Kunming mice (SPF grade, obtained from Laboratory Animal Center in Sichuan Academy of Chinese Medicine Science) were randomized by weight into groups. The test compound and vehicle control were formulated according to Experimental example 2. The dosage volume was 10 mL/kg, and the administration was performed by oral gavage, once per day for 7 consecutive days."}, "[9]": {"test": "Intravenous toxicity test in mice (administration for 7 days)", "assay_type": "in vivo", "from_the_text": "This test was used to investigate the toxic reactions after intravenous administration of compound C8 to normal KM mice for 7 consecutive days.\nKM mice passing the quarantine control were randomized into 4 groups (3 mice/gender/group). The test compound and vehicle control were formulated according to Experimental example 2. The mortality, appearance, behavior, mental status, secretion and excreta etc. of the animals were observed every day for 7 consecutive days after the administration, and the animals were anatomized on day 8."}, "[10]": {"test_system": "colorectal cancer cell HCT-116", "test": "Subcutaneous xenograft of colorectal cancer cell HCT-116 in nude mice (Experimental example 2)", "settings": "for TGI (%): twice a week for 3 weeks; for Body weight change: 14 days after last administration vs beginning; for Tumor regression, CR (complete tumor regression) / Tumor regression, PR (partial tumor regression): animals out of 8", "description": "as §9, §10, §11, §12, §13, §14, §15, §16, §17"}, "[11]": {"settings": "115.38 μmol/kg i.v., 7 days, anatomy on day 8"}},
  "note": "“Also recorded” adds a separate entry of the source.",
  "data": [
    {"smiles": "CC(C)OC(=O)[C@H](C)N[P@](=O)(OC[C@H]1S[C@@H](n2ccc(N)nc2=O)[C@@H](F)[C@@H]1O)Oc1ccccc1", "note": "[Compound C8, (S)-isopropyl 2-(((S)-(((2R,3S,4S,5R)-5-(4-amino-2-oxopyrimidin-1(2H)-yl)-4-fluoro-3-hydroxytetrahydrothiophen-2-yl)methoxy)(phenoxy)phosphoryl)amino)propanoate]", "values": [
      {"measurement": "inhibitory effect on gastric cancer cell NCI-N87 (in words)", "setting": "[1]; FIG. 1: 5-10000 nM", "result": "potent inhibitory effects; also recorded: excellent inhibitory effects"},
      {"measurement": "IC50", "setting": "[1]; Homo sapiens, NCI-N87, CCK-8, 72 h incubation", "result": 483, "unit": "nM"},
      {"measurement": "inhibitory effect on colorectal cancer cell HCT-15 (in words)", "setting": "[2]; FIG. 1: 5-10000 nM", "result": "potent inhibitory effects; also recorded: excellent inhibitory effects"},
      {"measurement": "IC50", "setting": "[2]; Homo sapiens, HCT-15, CCK-8, 72 h incubation", "result": 1960, "unit": "nM"},
      {"measurement": "inhibitory effect on pancreatic cancer cell BxPC-3 (in words)", "setting": "[3]; FIG. 1: 5-10000 nM", "result": "potent inhibitory effects; also recorded: excellent inhibitory effects"},
      {"measurement": "IC50", "setting": "[3]; Homo sapiens, BXPC-3, CCK-8, 72 h incubation", "result": 705, "unit": "nM"},
      {"measurement": "TGI (%)", "setting": "[4]; 190 μmol/kg i.v.", "result": 109, "unit": "%"},
      {"measurement": "Body weight change", "setting": "[4]; 190 μmol/kg i.v.", "result": "+8.1%"},
      {"measurement": "Tumor regression, CR (complete tumor regression)", "setting": "[4]; 190 μmol/kg i.v.", "result": "8/8 CR"},
      {"measurement": "TGI (%)", "setting": "[4]; 190 μmol/kg p.o.", "result": 110, "unit": "%"},
      {"measurement": "Body weight change", "setting": "[4]; 190 μmol/kg p.o.", "result": "+8.1%"},
      {"measurement": "Tumor regression, CR (complete tumor regression)", "setting": "[4]; 190 μmol/kg p.o.", "result": "8/8 CR"},
      {"measurement": "TGI (%)", "setting": "[5]; 0.04 mmol/kg i.v.", "result": 26.9, "unit": "%"},
      {"measurement": "TGI (%)", "setting": "[5]; 0.12 mmol/kg i.v.", "result": 74.9, "unit": "%"},
      {"measurement": "TGI (%)", "setting": "[5]; 0.24 mmol/kg i.v.", "result": 82.9, "unit": "%"},
      {"measurement": "TGI (%)", "setting": "[6]; 0.02 mmol/kg p.o.", "result": 25.6, "unit": "%"},
      {"measurement": "TGI (%)", "setting": "[6]; 0.06 mmol/kg i.v.", "result": 81.8, "unit": "%"},
      {"measurement": "TGI (%)", "setting": "[6]; 0.06 mmol/kg p.o.", "result": 79.1, "unit": "%"},
      {"measurement": "TGI (%)", "setting": "[6]; 0.19 mmol/kg p.o.", "result": 138.5, "unit": "%"},
      {"measurement": "TGI (%)", "setting": "[7]; 0.06 mmol/kg p.o.", "result": 155, "unit": "%"},
      {"measurement": "TGI (%)", "setting": "[7]; 0.19 mmol/kg p.o.", "result": 195, "unit": "%"},
      {"measurement": "dosage at which death of animals occurred", "setting": "[8]; oral gavage", "result": "~115", "unit": "µmol/kg"},
      {"measurement": "Results: mortality (3 Male + 3 Female)", "setting": "[8]; ~77 μmol/kg oral gavage", "result": "survived"},
      {"measurement": "Results: clinical symptoms (3 Male + 3 Female)", "setting": "[8]; ~6 mg/kg (~12 μmol/kg) oral gavage", "result": "No abnormal symptoms"},
      {"measurement": "Results: clinical symptoms (3 Male + 3 Female)", "setting": "[8]; ~20 mg/kg (~38 μmol/kg) oral gavage", "result": "No abnormal symptoms"},
      {"measurement": "body weight increase on day 8, female mice", "setting": "[9]; 115.38 μmol/kg i.v., 7 days", "result": 13.1, "unit": "%"},
      {"measurement": "body weight increase on day 8, male mice", "setting": "[9]; 115.38 μmol/kg i.v., 7 days", "result": 26.7, "unit": "%"},
      {"measurement": "leukocyte count decrease vs vehicle group, female", "setting": "[9]; [11]", "result": 45, "unit": "%"},
      {"measurement": "leukocyte count decrease vs vehicle group, male", "setting": "[9]; [11]", "result": 49, "unit": "%"},
      {"measurement": "platelet count decrease vs vehicle group, female", "setting": "[9]; [11]", "result": 43, "unit": "%"},
      {"measurement": "platelet count decrease vs vehicle group, male", "setting": "[9]; [11]", "result": 39, "unit": "%"},
      {"measurement": "symptoms observed on day 8", "setting": "[9]; compound C8 60.9 mg/kg (115.38 μmol/kg) i.v., 7 consecutive days", "result": "no relevant abnormalities were observed"},
      {"measurement": "Mortality", "setting": "[10]; 190 μmol/kg i.v.", "result": 0},
      {"measurement": "TGI (%)", "setting": "[10]; 190 μmol/kg i.v.", "result": 111, "unit": "%"},
      {"measurement": "Body weight change", "setting": "[10]; 190 μmol/kg i.v.", "result": "+7.4%"},
      {"measurement": "Tumor regression, CR (complete tumor regression)", "setting": "[10]; 190 μmol/kg i.v.", "result": "1/8 CR,"},
      {"measurement": "Tumor regression, PR (partial tumor regression)", "setting": "[10]; 190 μmol/kg i.v.", "result": "7/8 PR"},
      {"measurement": "Mortality", "setting": "[10]; 190 μmol/kg p.o.", "result": 0},
      {"measurement": "TGI (%)", "setting": "[10]; 190 μmol/kg p.o.", "result": 113, "unit": "%"},
      {"measurement": "Body weight change", "setting": "[10]; 190 μmol/kg p.o.", "result": "+8.9%"},
      {"measurement": "Tumor regression, CR (complete tumor regression)", "setting": "[10]; 190 μmol/kg p.o.", "result": "1/8 CR,"},
      {"measurement": "Tumor regression, PR (partial tumor regression)", "setting": "[10]; 190 μmol/kg p.o.", "result": "7/8 PR"}
    ]}
  ]
}
